From the CheMixHub viscosity set

Assay: xn = mol fraction of the nth substance listed

CC(C)(C)O + CCO
303.2 K, 101.33 kPa
Conditions | viscosity [mPa·s]
x2 = 0.05 | 3.256
x2 = 0.1 | 3.156
x2 = 0.15 | 3.039
x2 = 0.2 | 2.914
x2 = 0.3 | 2.645
x2 = 0.4 | 2.36
x2 = 0.5 | 2.07
x2 = 0.6 | 1.793
x2 = 0.7 | 1.548
x2 = 0.8 | 1.336
x2 = 0.85 | 1.239
x2 = 0.9 | 1.147
x2 = 0.95 | 1.059

CN(CCO)CCO + CCO
313 K, 101.33 kPa
Conditions | viscosity [mPa·s]
x1 = 0.0079 | 0.832
x1 = 0.02 | 0.888
x1 = 0.0434 | 0.998
x1 = 0.216 | 2.132
x1 = 0.2986 | 2.967
x1 = 0.3977 | 4.196
x1 = 0.5237 | 7.05
x1 = 0.5978 | 9.003
x1 = 0.7028 | 12.92
x1 = 0.8085 | 17.79
x1 = 0.908 | 23.88

C[NH+](CCO)CCO.O=C[O-] + CCO
viscosity [mPa·s], 101 kPa
Conditions | 293.15 K | 303.15 K | 313.15 K | 323.15 K
x1 = 0.0643 | 32.41 | 17.44 | 8.445 | 5.799
x1 = 0.1074 | 52.86 | 25.09 | 13.49 | 9.254
x1 = 0.2133 | 106.7 | 51.03 | 27.25 | 18.63
x1 = 0.3117 | 159.3 | 78.2 | 41.19 | 28.12
x1 = 0.417 | 218.9 | 107.6 | 57.4 | 39.18
x1 = 0.5197 | 281.6 | 137.2 | 74.93 | 51.06
x1 = 0.6178 | 348.2 | 168.6 | 93.84 | 63.73
x1 = 0.7224 | 434.6 | 211.7 | 118.3 | 79.69
x1 = 0.8275 | 534.4 | 263.6 | 145.7 | 97.16
x1 = 0.9161 | 630.3 | 312.3 | 170 | 112.2
x1 = 0.95 | 665 | 328.9 | 178.8 | 117.6

Oc1ccc2ccccc2c1 + CCO
viscosity [mPa·s], 101 kPa
Conditions | x1 = 0.03 | x1 = 0.06 | x1 = 0.09 | x1 = 0.12 | x1 = 0.15
293.15 K | 1.428 | 1.684 | 1.969 | 2.28 | 2.641
303.15 K | 1.162 | 1.351 | 1.588 | 1.836 | 2.093
313.15 K | 0.975 | 1.125 | 1.305 | 1.487 | 1.669
323.15 K | 0.801 | 0.92 | 1.063 | 1.217 | 1.374

COCCOCCOCCO + CCOC(=O)OCC
298.15 K, 101.33 kPa
Conditions | viscosity [mPa·s]
x1 = 0.0084 | 0.762
x1 = 0.017 | 0.775
x1 = 0.0385 | 0.809
x1 = 0.0758 | 0.874
x1 = 0.0923 | 0.905
x1 = 0.1232 | 0.967
x1 = 0.1538 | 1.035
x1 = 0.1917 | 1.126
x1 = 0.2331 | 1.242
x1 = 0.2893 | 1.408
x1 = 0.326 | 1.528
x1 = 0.3668 | 1.676
x1 = 0.41 | 1.845
x1 = 0.4336 | 1.944
x1 = 0.4506 | 2.027
x1 = 0.4939 | 2.224
x1 = 0.5117 | 2.316
x1 = 0.5615 | 2.578
x1 = 0.603 | 2.819
x1 = 0.676 | 3.303
x1 = 0.7411 | 3.785
x1 = 0.8077 | 4.364
x1 = 0.8846 | 5.15
x1 = 0.925 | 5.608

COCCOCCOCCOC + CCOC(=O)OCC
298.15 K, 101.33 kPa
Conditions | viscosity [mPa·s]
x1 = 0.0103 | 0.759
x1 = 0.0175 | 0.767
x1 = 0.0246 | 0.775
x1 = 0.0367 | 0.788
x1 = 0.0576 | 0.813
x1 = 0.0787 | 0.837
x1 = 0.0958 | 0.856
x1 = 0.119 | 0.879
x1 = 0.1509 | 0.913
x1 = 0.1983 | 0.966
x1 = 0.2499 | 1.021
x1 = 0.3024 | 1.081
x1 = 0.3233 | 1.105
x1 = 0.3543 | 1.142
x1 = 0.4034 | 1.199
x1 = 0.4614 | 1.268
x1 = 0.5022 | 1.324
x1 = 0.552 | 1.386
x1 = 0.6112 | 1.463
x1 = 0.6561 | 1.519
x1 = 0.7044 | 1.583
x1 = 0.7371 | 1.624
x1 = 0.7905 | 1.693
x1 = 0.8464 | 1.764
x1 = 0.9175 | 1.85
x1 = 0.951 | 1.894

COCCOCCOCCO + CCOC(C)(C)C
viscosity [mPa·s], 101 kPa
Conditions | 293.15 K | 298.15 K | 303.15 K
x2 = 0.0504 | 6.269 | 5.479 | 4.777
x2 = 0.1 | 5.458 | 4.8 | 4.209
x2 = 0.1509 | 4.734 | 4.186 | 3.689
x2 = 0.2025 | 4.101 | 3.643 | 3.225
x2 = 0.2489 | 3.607 | 3.216 | 2.859
x2 = 0.3007 | 3.129 | 2.801 | 2.501
x2 = 0.3511 | 2.729 | 2.453 | 2.199
x2 = 0.3999 | 2.394 | 2.159 | 1.944
x2 = 0.4508 | 2.091 | 1.893 | 1.712
x2 = 0.5001 | 1.837 | 1.669 | 1.516
x2 = 0.5493 | 1.616 | 1.475 | 1.345
x2 = 0.6 | 1.418 | 1.3 | 1.192
x2 = 0.6503 | 1.248 | 1.149 | 1.058
x2 = 0.6998 | 1.102 | 1.019 | 0.943
x2 = 0.7491 | 0.974 | 0.906 | 0.842
x2 = 0.7999 | 0.86 | 0.803 | 0.751
x2 = 0.8509 | 0.759 | 0.712 | 0.669
x2 = 0.9001 | 0.674 | 0.635 | 0.6
x2 = 0.9498 | 0.599 | 0.566 | 0.536
